In ChEMBL document CHEMBL1201862, “PubChem BioAssay data set” (2004):
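Step 1: Grow cells in 96-well plates. Step 2: Expose to compound for 48 hours at 5 concentrations. Step 3: Interpolate endpoints linearly; if unreached, use highest concentration. The concentration for 50% growth inhibition is given as GI50.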 Active and inactive are the calls of the source. Rule as the data show it: active = GI50 up to about 1.1 µM and inactive = higher.

How the values were obtained:
Experiment in all cases: NCI tumour cell line growth inhibition, 48 h
[1] = tested on: NCI-H226
[2] = tested on: RPMI-8226
[3] = tested on: NCI-H522
[4] = tested on: OVCAR-4
[5] = tested on: COLO 205
[6] = tested on: SK-MEL-28
[7] = tested on: SF-268
[8] = tested on: A498
[9] = tested on: OVCAR-3
[10] = tested on: SK-MEL-5
[11] = tested on: NCI-H23
[12] = tested on: NCI/ADR-RES
[13] = tested on: MCF7
[14] = tested on: K562
[15] = tested on: SN12C
[16] = tested on: SF-295
[17] = tested on: PC-3
[18] = tested on: UO-31
[19] = tested on: U-251
[20] = tested on: Hs-578T
[21] = tested on: ACHN
[22] = tested on: 786-0
[23] = tested on: DU-145
[24] = tested on: OVCAR-5
[25] = tested on: SW-620
[26] = tested on: HCT-15
[27] = tested on: IGROV-1
[28] = tested on: CCRF-CEM
[29] = tested on: OVCAR-8
[30] = tested on: SK-MEL-2
[31] = tested on: SNB-19
[32] = tested on: M14
[33] = tested on: SK-OV-3
[34] = tested on: LOX IMVI
[35] = tested on: A549
[36] = tested on: HL-60
[37] = tested on: HT-29
[38] = tested on: Malme-3M
[39] = tested on: HCT-116
[40] = tested on: TK-10
[41] = tested on: MDA-N
[42] = tested on: EKVX
[43] = tested on: MOLT-4
[44] = tested on: SNB-75
[45] = tested on: KM12
[46] = tested on: MDA-MB-435
[47] = tested on: MDA-MB-231
[48] = tested on: HOP-62
[49] = tested on: HOP-92
[50] = tested on: SR
[51] = tested on: UACC-62
[52] = tested on: HCC 2998
[53] = tested on: UACC-257
[54] = tested on: RXF 393
[55] = tested on: NCI-H460
[56] = tested on: CAKI-1
[57] = tested on: SF-539
[58] = tested on: T47D

For `N=C(N)NCCCC(NC(=O)c1cccc2c(=O)c3ccccc3[nH]c12)C(=O)O` (stereo unspecified), which GI50 [1] is on record?
The GI50 was > 100 µM (inactive).

What about the GI50 [2] of the same molecule?
The GI50 was > 100 µM (inactive).

And the GI50 [3]?
The GI50 was > 100 µM (inactive).

What about the GI50 [4] of the same molecule?
Its GI50 is > 100 µM (inactive).

What about the GI50 [5] of the same molecule?
Its GI50 is > 100 µM (inactive).

And the GI50 [6]?
The GI50 was > 100 µM (inactive).

What about the GI50 [7] of the same molecule?
The GI50 was > 100 µM (inactive).

What about the GI50 [8] of the same molecule?
Its GI50 is > 100 µM (inactive).

And the GI50 [9]?
The GI50 was > 100 µM (inactive).

And the GI50 [10]?
Its GI50 is > 100 µM (inactive).

And the GI50 [11]?
The GI50 was > 100 µM (inactive).

What about the GI50 [12] of the same molecule?
The GI50 was > 100 µM (inactive).

What about the GI50 [13] of the same molecule?
Its GI50 is > 100 µM (inactive).

And the GI50 [14]?
Its GI50 is > 100 µM (inactive).

And the GI50 [15]?
The GI50 was > 100 µM (inactive).

What about the GI50 [16] of the same molecule?
The GI50 was > 100 µM (inactive).

And the GI50 [17]?
Its GI50 is > 100 µM (inactive).

What about the GI50 [18] of the same molecule?
Its GI50 is > 100 µM (inactive).

And the GI50 [19]?
Its GI50 is > 100 µM (inactive).

What about the GI50 [20] of the same molecule?
Its GI50 is > 100 µM (inactive).

What about the GI50 [21] of the same molecule?
Its GI50 is > 100 µM (inactive).

What about the GI50 [22] of the same molecule?
The GI50 was > 100 µM (inactive).

What about the GI50 [23] of the same molecule?
Its GI50 is > 100 µM (inactive).

What about the GI50 [24] of the same molecule?
The GI50 was > 100 µM (inactive).

And the GI50 [25]?
Its GI50 is > 100 µM (inactive).

What about the GI50 [26] of the same molecule?
Its GI50 is greater than 100 µM.

And the GI50 [27]?
Its GI50 is > 100 µM (inactive).

What about the GI50 [28] of the same molecule?
The GI50 was > 100 µM (inactive).

And the GI50 [29]?
Its GI50 is > 100 µM (inactive).

And the GI50 [30]?
Its GI50 is > 100 µM (inactive).

What about the GI50 [31] of the same molecule?
The GI50 was > 100 µM (inactive).

What about the GI50 [32] of the same molecule?
Its GI50 is > 100 µM (inactive).

What about the GI50 [33] of the same molecule?
The GI50 was > 100 µM (inactive).

And the GI50 [34]?
The GI50 was > 100 µM (inactive).

And the GI50 [35]?
The GI50 was > 100 µM (inactive).

And the GI50 [36]?
Its GI50 is > 100 µM (inactive).

What about the GI50 [37] of the same molecule?
The GI50 was > 100 µM (inactive).

What about the GI50 [38] of the same molecule?
The GI50 was > 100 µM (inactive).

And the GI50 [39]?
The GI50 was > 100 µM (inactive).

And the GI50 [40]?
The GI50 was > 100 µM (inactive).

What about the GI50 [41] of the same molecule?
Its GI50 is > 100 µM (inactive).

And the GI50 [42]?
The GI50 was > 100 µM (inactive).

What about the GI50 [43] of the same molecule?
Its GI50 is > 100 µM (inactive).

What about the GI50 [44] of the same molecule?
Its GI50 is > 100 µM (inactive).

What about the GI50 [45] of the same molecule?
The GI50 was > 100 µM (inactive).

What about the GI50 [46] of the same molecule?
The GI50 was > 100 µM (inactive).

And the GI50 [47]?
Its GI50 is > 100 µM (inactive).

And the GI50 [48]?
The GI50 was > 100 µM (inactive).

And the GI50 [49]?
The GI50 was 58.9 µM (inactive).

What about the GI50 [50] of the same molecule?
Its GI50 is > 100 µM (inactive).

What about the GI50 [51] of the same molecule?
The GI50 was > 100 µM (inactive).

`O=C(c1cccs1)c1nccc2c1cnc1ccccc12` was tested. Which GI50 [1] did it give?
The GI50 was > 100 µM (inactive).

And the GI50 [2]?
Its GI50 is > 100 µM (inactive).

What about the GI50 [4] of the same molecule?
Its GI50 is > 100 µM (inactive).

And the GI50 [5]?
Its GI50 is > 100 µM (inactive).

And the GI50 [52]?
The GI50 was > 100 µM (inactive).

What about the GI50 [6] of the same molecule?
The GI50 was > 100 µM (inactive).

What about the GI50 [7] of the same molecule?
Its GI50 is 26.2 µM (inactive).

And the GI50 [8]?
The GI50 was 63.8 µM (inactive).

And the GI50 [9]?
Its GI50 is > 100 µM (inactive).

What about the GI50 [10] of the same molecule?
The GI50 was > 100 µM (inactive).

What about the GI50 [11] of the same molecule?
Its GI50 is 92.7 µM (inactive).

And the GI50 [53]?
Its GI50 is > 100 µM (inactive).

What about the GI50 [12] of the same molecule?
The GI50 was > 100 µM (inactive).

And the GI50 [13]?
The GI50 was 20.3 µM (inactive).

And the GI50 [14]?
The GI50 was > 100 µM (inactive).

What about the GI50 [15] of the same molecule?
Its GI50 is > 100 µM (inactive).

What about the GI50 [16] of the same molecule?
The GI50 was > 100 µM (inactive).

What about the GI50 [54] of the same molecule?
Its GI50 is 0.0113 µM (active).

And the GI50 [17]?
The GI50 was > 100 µM (inactive).

And the GI50 [18]?
Its GI50 is > 100 µM (inactive).

What about the GI50 [19] of the same molecule?
Its GI50 is 41.2 µM (inactive).

What about the GI50 [20] of the same molecule?
The GI50 was 94.6 µM (inactive).

What about the GI50 [21] of the same molecule?
The GI50 was 38.5 µM (inactive).

What about the GI50 [22] of the same molecule?
The GI50 was 68.5 µM (inactive).

What about the GI50 [23] of the same molecule?
Its GI50 is > 100 µM (inactive).

And the GI50 [24]?
The GI50 was > 100 µM (inactive).

What about the GI50 [25] of the same molecule?
The GI50 was > 100 µM (inactive).

And the GI50 [26]?
Its GI50 is greater than 100 µM.

And the GI50 [28]?
Its GI50 is > 100 µM (inactive).

What about the GI50 [29] of the same molecule?
Its GI50 is 31.4 µM (inactive).

What about the GI50 [30] of the same molecule?
The GI50 was > 100 µM (inactive).

And the GI50 [31]?
The GI50 was > 100 µM (inactive).

What about the GI50 [32] of the same molecule?
The GI50 was > 100 µM (inactive).

What about the GI50 [33] of the same molecule?
The GI50 was > 100 µM (inactive).

What about the GI50 [34] of the same molecule?
The GI50 was > 100 µM (inactive).

And the GI50 [35]?
The GI50 was > 100 µM (inactive).

And the GI50 [55]?
Its GI50 is > 100 µM (inactive).

What about the GI50 [36] of the same molecule?
The GI50 was > 100 µM (inactive).

What about the GI50 [37] of the same molecule?
The GI50 was > 100 µM (inactive).

What about the GI50 [38] of the same molecule?
Its GI50 is > 100 µM (inactive).

And the GI50 [39]?
Its GI50 is 90.8 µM (inactive).

And the GI50 [40]?
The GI50 was > 100 µM (inactive).

And the GI50 [42]?
The GI50 was > 100 µM (inactive).

What about the GI50 [43] of the same molecule?
Its GI50 is > 100 µM (inactive).

What about the GI50 [44] of the same molecule?
The GI50 was 43.7 µM (inactive).

What about the GI50 [45] of the same molecule?
The GI50 was > 100 µM (inactive).

What about the GI50 [56] of the same molecule?
The GI50 was 41.5 µM (inactive).

What about the GI50 [46] of the same molecule?
The GI50 was > 100 µM (inactive).

And the GI50 [47]?
Its GI50 is > 100 µM (inactive).

And the GI50 [48]?
The GI50 was 28.7 µM (inactive).

What about the GI50 [57] of the same molecule?
Its GI50 is > 100 µM (inactive).

What about the GI50 [49] of the same molecule?
The GI50 was 36.6 µM (inactive).

And the GI50 [50]?
The GI50 was > 100 µM (inactive).

What about the GI50 [51] of the same molecule?
The GI50 was > 100 µM (inactive).

What about the GI50 [58] of the same molecule?
The GI50 was > 100 µM (inactive).
